Like-named read-outs stand apart in the source and are kept apart here.
What was measured:
[1] = Pharmacokinetics in beagles, single-dose regimen of TRQI (i.v.) or TRQC (oral), plasma LC-MS/MS; assay type: in vivo, beagle; details: for AUC(0-t) / Cmax / Tmax / half-life: beagle, dog, plasma; for AUC(0-t): read-out: AUC0–24 h; for Cmax / Tmax / half-life: mean of six beagles
Method: (§1) 100 μL plasma sample was drawn and transferred to 1.5 mL centrifuge tube prior to 300 μL protein precipitant (3:1 [v/v] methanol/acetonitrile, containing 0.1% formic acid and 100 ng/mL IS) was added, and then the sample was vortex-mixed for 3 min. The mixture was centrifuged at 20,000 ×g for 10 min, and 100 μL supernatant was transferred to the injection vial and analyzed directly by LC–MS/MS.
(§2) This study was carried out in six beagles (three males and three females, 9.0–12.0 kg each), that were purchased from Junda Pet Hospital (Shanghai, China). This experimental protocol was approved by the Experimental Animal Ethics Committee of the Naval Military Medical University (Shanghai, China).
The six healthy beagles were divided into two groups: beagles 1–3 were all male and were assigned to the first group, and beagles 4–6 were all females and assigned to the second group. The two-cycle, crossover study was designed with a 7-day wash out period. For the single-administration process, the dogs in the first group were injected intravenously with 0.5 mL/kg TRQI (one-third of the normal daily dose), and blood samples were collected at 0, 5, 10, 15, 20, 30, and 45 min and then at 1, 2, 4, 6, 8, 12, and 24 h (a total of 14 time points) after injection. For each blood sample, 1 mL of blood was collected from the forelimb vein in heparin-treated tubes. The dogs in the second group were orally administrated 0.09 g/kg TRQC (one-third of the normal daily dose, and blood samples were collected in the same manner at 0, 10, 20, and 40 min and then at 1, 1.5, 2, 2.5, 3, 4, 6, 8, 12, and 24 h (a total of 14 time points). All blood samples were centrifuged at 4000 × g for 5 min, and each supernatant was collected and aliquoted. After a 7-day wash out period, the dogs in each group were administrated the other Tanreqing formulation in a crossover design, and blood samples were collected and processed in the same way.
(§3) All data obtained were analyzed using Drug and Statistics (DAS) 2.0 software (Chinese Society of Pharmacology), and a non-compartment analysis was used to calculate plasma pharmacokinetic parameters. The principal components of TRQI and TRQC were compared with an analysis of variance (ANOVA) and/or a two-tailed student-t test.

[2] = Pharmacokinetics in beagles, multiple-dose regimen (once per day for 7 days) of TRQI or TRQC, plasma LC-MS/MS; assay type: in vivo; details: beagle, dog
Method: as §1, §2
After the end of the single-dose experiment, the dogs in group one were given 0.5 mL/kg injection of TRQI once per day for 7 days following the wash out period, and the dogs in group two were given 0.09 g/kg TRQC once per day for 7 days. After the seventh administration, blood samples were collected at 0, 10, 20, and 40 min and then at 1, 1.5, 2, 2.5, 3, 4, 6, 8, 12, and 24 h (a total of 14 time points) and were processed as described in “Single-dose regimen” section. The resulting plasma samples were used to determine the steady-state plasma concentration of TRQI and TRQC. A crossover study was again carried out in both groups, as described in “Single-dose regimen” section, after a 7-day washing period.
as §3

[3] = Stability of analytes in dog plasma (QC samples); assay type: in vitro ADME
Method: The stock solutions of all analytes were further mixed and diluted with methanol/water (10:90, v/v) solution to prepare the working solutions. […] The QC samples were stored in a refrigerator at – 80 °C until retrieval (see Additional file 1). The stability, which includes short-term stability (6 h at room temperature), long-term stability (− 80 °C for 30 days in the refrigerator), and freeze–thaw stability (three cycles from − 80 °C to room temperature), were assessed using QC samples at three concentration levels in three replicates. […] Similarly, there were no obvious effects on the analysis results of the samples with respect to short-term stability or long-term storage.

[4] = Tanreqing injection, cited from earlier work
[5] = both sexes, iv, single i.v. dose of TRQI 0.5 mL/kg
[6] = both sexes, single oral dose of TRQC 0.09 g/kg
[7] = both sexes, iv, TRQI 0.5 mL/kg once per day for 7 days, mean
[8] = both sexes, po, TRQC 0.09 g/kg once per day for 7 days, mean
[9] = n = 3, high QC: nominal 200 ng/mL baicalin, 1000 ursodeoxycholic acid, 100 chenodeoxycholic acid and chlorogenic acid
[10] = n = 3, low QC: nominal 4 ng/mL baicalin, 20 ursodeoxycholic acid, 2 chenodeoxycholic acid and chlorogenic acid
[11] = n = 3, middle QC: nominal 20 ng/mL baicalin, 100 ursodeoxycholic acid, 10 chenodeoxycholic acid and chlorogenic acid

- time at which oral absorption reached a peak ([1]; TRQC, oral, dogs): ~5 h
- AUC(0-t) ([1]; both sexes, iv, 0.5 mL/kg, single TRQI 0.5 mL/kg, Mean): 359 ng·h/mL
- Cmax [1, 5]: 120 ng/mL
- Tmax [1, 5]: 1.07 h
- half-life [1, 5]: 5.67 h
- AUC(0-t) ([1]; both sexes, po, 0.09 g/kg, single TRQCs 0.09 g/kg, Mean): 553 ng·h/mL
- Cmax [1, 6]: 99.8 ng/mL
- Tmax [1, 6]: 7.53 h
- half-life [1, 6]: 5.93 h
- AUC(0-t) ([1]; female, iv, 0.5 mL/kg, single TRQI 0.5 mL/kg, beagle No 4): 89 ng·h/mL
- AUC(0-t) ([1]; female, iv, 0.5 mL/kg, single TRQI 0.5 mL/kg, beagle No 5): 137 ng·h/mL
- AUC(0-t) ([1]; female, iv, 0.5 mL/kg, single TRQI 0.5 mL/kg, beagle No 6): 95 ng·h/mL
- AUC(0-t) ([1]; female, po, 0.09 g/kg, single TRQCs 0.09 g/kg, beagle No 4): 1330 ng·h/mL
- AUC(0-t) ([1]; female, po, 0.09 g/kg, single TRQCs 0.09 g/kg, beagle No 5): 126 ng·h/mL
- AUC(0-t) ([1]; female, po, 0.09 g/kg, single TRQCs 0.09 g/kg, beagle No 6): 1080 ng·h/mL
- AUC(0-t) ([1]; male, iv, 0.5 mL/kg, single TRQI 0.5 mL/kg, beagle No 1): 1490 ng·h/mL
- AUC(0-t) ([1]; male, iv, 0.5 mL/kg, single TRQI 0.5 mL/kg, beagle No 2): 108 ng·h/mL
- AUC(0-t) ([1]; male, iv, 0.5 mL/kg, single TRQI 0.5 mL/kg, beagle No 3): 238 ng·h/mL
- AUC(0-t) ([1]; male, po, 0.09 g/kg, single TRQCs 0.09 g/kg, beagle No 1): 104 ng·h/mL
- AUC(0-t) ([1]; male, po, 0.09 g/kg, single TRQCs 0.09 g/kg, beagle No 2): 257 ng·h/mL
- AUC(0-t) ([1]; male, po, 0.09 g/kg, single TRQCs 0.09 g/kg, beagle No 3): 421 ng·h/mL
- AUC(0-inf) ([2]; both sexes, iv, 0.5 mL/kg, TRQI 0.5 mL/kg for 7 days, Mean): 5030 ng·h/mL
- AUC(0-t) ([2]; both sexes, iv, 0.5 mL/kg, TRQI 0.5 mL/kg for 7 days, Mean, read-out: AUC0–24 h): 4070 ng·h/mL
- Cmax at 7 days [2, 7]: 968 ng/mL
- half-life at 7 days [2, 7]: 6.25 h
- AUC(0-inf) ([2]; both sexes, po, 0.09 g/kg, TRQC 0.09 g/kg for 7 days, Mean): 3710 ng·h/mL
- AUC(0-t) ([2]; both sexes, po, 0.09 g/kg, TRQC 0.09 g/kg for 7 days, Mean, read-out: AUC0–24 h): 3430 ng·h/mL
- Cmax at 7 days [2, 8]: 521 ng/mL
- Tmax at 7 days [2, 8]: 4.72 h
- half-life at 7 days [2, 8]: 13.7 h
- AUC(0-inf) ([2]; female, iv, 0.5 mL/kg, TRQI 0.5 mL/kg for 7 days, beagle No. 4): 6190 ng·h/mL
- AUC(0-t) ([2]; female, iv, 0.5 mL/kg, TRQI 0.5 mL/kg for 7 days, beagle No. 4, read-out: AUC0–24 h): 669 ng·h/mL
- AUC(0-inf) ([2]; female, iv, 0.5 mL/kg, TRQI 0.5 mL/kg for 7 days, beagle No. 5): 399 ng·h/mL
- AUC(0-t) ([2]; female, iv, 0.5 mL/kg, TRQI 0.5 mL/kg for 7 days, beagle No. 5, read-out: AUC0–24 h): 234 ng·h/mL
- AUC(0-inf) ([2]; female, iv, 0.5 mL/kg, TRQI 0.5 mL/kg for 7 days, beagle No. 6): 138 ng·h/mL
- AUC(0-t) ([2]; female, iv, 0.5 mL/kg, TRQI 0.5 mL/kg for 7 days, beagle No. 6, read-out: AUC0–24 h): 138 ng·h/mL
- AUC(0-inf) ([2]; female, po, 0.09 g/kg, TRQC 0.09 g/kg for 7 days, beagle No. 4): 16800 ng·h/mL
- AUC(0-t) ([2]; female, po, 0.09 g/kg, TRQC 0.09 g/kg for 7 days, beagle No. 4, read-out: AUC0–24 h): 16700 ng·h/mL
- AUC(0-inf) ([2]; female, po, 0.09 g/kg, TRQC 0.09 g/kg for 7 days, beagle No. 5): 1960 ng·h/mL
- AUC(0-t) ([2]; female, po, 0.09 g/kg, TRQC 0.09 g/kg for 7 days, beagle No. 5, read-out: AUC0–24 h): 500 ng·h/mL
- AUC(0-inf) ([2]; female, po, 0.09 g/kg, TRQC 0.09 g/kg for 7 days, beagle No. 6): 761 ng·h/mL
- AUC(0-t) ([2]; female, po, 0.09 g/kg, TRQC 0.09 g/kg for 7 days, beagle No. 6, read-out: AUC0–24 h): 760 ng·h/mL
- AUC(0-inf) ([2]; male, iv, 0.5 mL/kg, TRQI 0.5 mL/kg for 7 days, beagle No. 1): 20000 ng·h/mL
- AUC(0-t) ([2]; male, iv, 0.5 mL/kg, TRQI 0.5 mL/kg for 7 days, beagle No. 1, read-out: AUC0–24 h): 20000 ng·h/mL
- AUC(0-inf) ([2]; male, iv, 0.5 mL/kg, TRQI 0.5 mL/kg for 7 days, beagle No. 2): 183 ng·h/mL
- AUC(0-t) ([2]; male, iv, 0.5 mL/kg, TRQI 0.5 mL/kg for 7 days, beagle No. 2, read-out: AUC0–24 h): 121 ng·h/mL
- AUC(0-inf) ([2]; male, iv, 0.5 mL/kg, TRQI 0.5 mL/kg for 7 days, beagle No. 3): 3250 ng·h/mL
- AUC(0-t) ([2]; male, iv, 0.5 mL/kg, TRQI 0.5 mL/kg for 7 days, beagle No. 3, read-out: AUC0–24 h): 3240 ng·h/mL
- AUC(0-inf) ([2]; male, po, 0.09 g/kg, TRQC 0.09 g/kg for 7 days, beagle No. 1): 231 ng·h/mL
- AUC(0-t) ([2]; male, po, 0.09 g/kg, TRQC 0.09 g/kg for 7 days, beagle No. 1, read-out: AUC0–24 h): 195 ng·h/mL
- AUC(0-inf) ([2]; male, po, 0.09 g/kg, TRQC 0.09 g/kg for 7 days, beagle No. 2): 1930 ng·h/mL
- AUC(0-t) ([2]; male, po, 0.09 g/kg, TRQC 0.09 g/kg for 7 days, beagle No. 2, read-out: AUC0–24 h): 1900 ng·h/mL
- AUC(0-inf) ([2]; male, po, 0.09 g/kg, TRQC 0.09 g/kg for 7 days, beagle No. 3): 538 ng·h/mL
- AUC(0-t) ([2]; male, po, 0.09 g/kg, TRQC 0.09 g/kg for 7 days, beagle No. 3, read-out: AUC0–24 h): 493 ng·h/mL
- Freeze-thaw stability (3 cycles) Mean ± S.D. concentration [3, 9]: 95.70 ± 4.66 ng/mL
- Long-term stability (30 days at – 80 °C) Mean ± S.D. concentration [3, 9]: 101.23 ± 5.13 ng/mL
- Short-term stability (6 h at room temperature) Mean ± S.D concentration [3, 9]: 101.57 ± 0.54 ng/mL
- Freeze-thaw stability (3 cycles) Mean ± S.D. concentration [3, 10]: 1.97 ± 0.17 ng/mL
- Long-term stability (30 days at – 80 °C) Mean ± S.D. concentration [3, 10]: 1.92 ± 0.22 ng/mL
- Short-term stability (6 h at room temperature) Mean ± S.D concentration [3, 10]: 1.77 ± 0.06 ng/mL
- Freeze-thaw stability (3 cycles) Mean ± S.D. concentration [3, 11]: 9.37 ± 0.95 ng/mL
- Long-term stability (30 days at – 80 °C) Mean ± S.D. concentration [3, 11]: 10.10 ± 0.36 ng/mL
- Short-term stability (6 h at room temperature) Mean ± S.D concentration [3, 11]: 9.79 ± 0.78 ng/mL
SMILES: C[C@H](CCC(=O)O)[C@H]1CC[C@H]2[C@@H]3[C@H](O)C[C@@H]4C[C@H](O)CC[C@]4(C)[C@H]3CC[C@]12C [Chenodeoxycholic acid, chenodeoxycholic acid]
- t1/2 ([4]; Hu's study): 1.83 h
- t1/2 ([4]; another study): 0.55 h

From article PMC9721025, “Pharmacokinetic study of the main components of Tanreqing capsules and Tanreqing injections in beagles by liquid chromatography–tandem mass spectrometry” (Chinese Medicine, 2022)
